What was measured:
[1] = system: false pimpernel; assay: Test Example 1: herbicidal efficacy on rice paddy weeds pre-emergence; format: in vivo, Lindernia pyxidaria; conditions: 21 days
[2] = system: bulrush; assay: Test Example 2: herbicidal efficacy on rice paddy weeds post-emergence; format: in vivo, Scirpus juncoides; conditions: post-emergence, one leaf stage, 21 days after treatment
[3] = system: barnyard glass; assay: as above; format: in vivo, Echinochloa crus-galli; conditions: post-emergence, one leaf stage, 21 days after treatment
Outline: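 Efficacy on paddy weeds was scored on a 0 to 4 growth-inhibition scale: 4 for 90%-100%, 3 for 70%-89%, 2 for 40%-69%, 1 for 1%-39% and 0 for 0%. Barnyard glass was grown in clay loam in 75 cm^2 pots under 5 cm of water in a hot house. It was compared with untreated pots 21 days after treatment.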

[4] = system: transplanted paddy rice plant and Bulrush; assay: Test Example 5: selectivity between transplanted paddy rice plant and weeds; format: in vivo; conditions: (highest dosage with no phytotoxicity to paddy rice)/(lowest dosage with effective level 4 on Bulrush); rice 3000-100 g/ha, Bulrush 300-10 g/ha; 21 days
Outline: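 Scoring ran 21 days after treatment in a hothouse on a 0–4 scale (4 = 90–100%, 3 = 70–89%, 2 = 40–69%, 1 = 1–39%, 0 = none) relative to untreated plants. Post-emergence bulrush received 10, 30, 100 and 300 g/ha active ingredient. Transplanted rice received 100, 300, 1000 and 3000 g/ha to assess crop injury.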

[5] = system: false pimpernel; assay: Test Example 2: herbicidal efficacy on rice paddy weeds post-emergence; format: in vivo, Lindernia pyxidaria; conditions: post-emergence, one leaf stage, 21 days after treatment
[6] = system: paddy rice plant (cultivar: Nihonbare); assay: Test Example 3: phytotoxicity test for transplanted paddy rice plant; format: in vivo; conditions: transplanted rice, 21 days after treatment
Outline: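 Clay loam soil was placed in a 75 cm^2 plastic pot and flooded to a water depth of 5 cm. Two Nihonbare paddy rice plants at the two-leaf stage were transplanted 1 cm deep and grown in a hot house. After treatment, pots stayed in the hot house for 21 days, and phytotoxicity was then graded against an untreated control.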

[7] = system: bulrush; assay: Test Example 4: low dosage test for rice paddy weeds; format: in vivo, Scirpus juncoides; conditions: 300 g/ha as an active ingredient; plants treated at the one leaf stage; 21 days after treatment; vs untreated control
Outline: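 Compound applied as a formulation at 300 g/ha to one-leaf bulrush grown in flooded clay loam (5 cm water) in a hot house. After 21 days, growth inhibition versus untreated plants rated on a 0–4 scale, with 4 meaning 90–100%.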

[8] = system: bulrush; assay: Test Example 1: herbicidal efficacy on rice paddy weeds pre-emergence; format: in vivo, Scirpus juncoides; conditions: 21 days
[9] = dosage 1000 g/ha, treated 5 days after transplantation

Row | SMILES | False pimpernel pre (herbicidal efficacy grade) ([1]; dosage 1000 g/ha) | Bulrush post (herbicidal efficacy grade) ([2]; dosage 1000 g/ha) | Burnyard grass post (herbicidal efficacy grade) ([3]; dosage 1000 g/ha) | Selective Index [4] | False pimpernel post (herbicidal efficacy grade) ([5]; dosage 1000 g/ha) | Phytotoxicity to paddy rice [6, 9] | Herbicide effect to Bulrush [7] | Bulrush pre (herbicidal efficacy grade) ([8]; dosage 1000 g/ha) | False pimpernel pre (herbicidal efficacy grade) ([1]; dosage 100 g/ha) | Bulrush post (herbicidal efficacy grade) ([2]; dosage 100 g/ha) | Burnyard grass post (herbicidal efficacy grade) ([3]; dosage 100 g/ha) | False pimpernel post (herbicidal efficacy grade) ([5]; dosage 100 g/ha) | Phytotoxicity to paddy rice ([6]; dosage 100 g/ha as printed in the table line) | Bulrush pre (herbicidal efficacy grade) ([8]; dosage 100 g/ha)
1 | CCCCCOC(=O)N(c1ccccc1CN1CC(C)(C)OC1=O)S(=O)(=O)C(F)(F)F [1-92] | 4 (90%-100% of herbicidal efficacy or phytotoxicity) | 4 (90%-100% of herbicidal efficacy or phytotoxicity) | 4 (90%-100% of herbicidal efficacy or phytotoxicity) | 30 | 4 (90%-100% of herbicidal efficacy or phytotoxicity) | 3 (70%-89% of herbicidal efficacy or phytotoxicity) | 4 (90%-100% of herbicidal efficacy or phytotoxicity) | 4 (90%-100% of herbicidal efficacy or phytotoxicity) |  |  |  |  |  | 
2 | CCCCCCOC(=O)N(c1ccccc1CN1CC(C)(C)OC1=O)S(=O)(=O)C(F)(F)F [1-93] | 4 (90%-100% of herbicidal efficacy or phytotoxicity) | 4 (90%-100% of herbicidal efficacy or phytotoxicity) | 4 (90%-100% of herbicidal efficacy or phytotoxicity) | ≧30 | 4 (90%-100% of herbicidal efficacy or phytotoxicity) | 1 (1%-39% of herbicidal efficacy or phytotoxicity) | 4 (90%-100% of herbicidal efficacy or phytotoxicity) | 4 (90%-100% of herbicidal efficacy or phytotoxicity) |  |  |  |  |  | 
3 | CCCCCCCOC(=O)N(c1ccccc1CN1CC(C)(C)OC1=O)S(=O)(=O)C(F)(F)F [1-94] | 4 (90%-100% of herbicidal efficacy or phytotoxicity) | 4 (90%-100% of herbicidal efficacy or phytotoxicity) | 4 (90%-100% of herbicidal efficacy or phytotoxicity) | ≧30 | 4 (90%-100% of herbicidal efficacy or phytotoxicity) | 1 (1%-39% of herbicidal efficacy or phytotoxicity) | 4 (90%-100% of herbicidal efficacy or phytotoxicity) | 4 (90%-100% of herbicidal efficacy or phytotoxicity) |  |  |  |  |  | 
4 | CC(C)COC(=O)N(c1ccccc1CN1C(=O)OC(C)(C)C1C)S(=O)(=O)C(F)(F)F (stereo not drawn) [1-95] | 4 (90%-100% of herbicidal efficacy or phytotoxicity) | 4 (90%-100% of herbicidal efficacy or phytotoxicity) | 4 (90%-100% of herbicidal efficacy or phytotoxicity) | 30 | 4 (90%-100% of herbicidal efficacy or phytotoxicity) | 3 (70%-89% of herbicidal efficacy or phytotoxicity) | 4 (90%-100% of herbicidal efficacy or phytotoxicity) | 4 (90%-100% of herbicidal efficacy or phytotoxicity) |  |  |  |  |  | 
5 | CCOC(=O)N(c1ccccc1CN1CC(CC)(CC)OC1=O)S(=O)(=O)C(F)(F)F [1-97] | 4 (90%-100% of herbicidal efficacy or phytotoxicity) | 4 (90%-100% of herbicidal efficacy or phytotoxicity) | 4 (90%-100% of herbicidal efficacy or phytotoxicity) | 30 | 4 (90%-100% of herbicidal efficacy or phytotoxicity) | 1 (1%-39% of herbicidal efficacy or phytotoxicity) | 4 (90%-100% of herbicidal efficacy or phytotoxicity) | 4 (90%-100% of herbicidal efficacy or phytotoxicity) |  |  |  |  |  | 
6 | CCCOC(=O)N(c1ccccc1CN1CC(CC)(CC)OC1=O)S(=O)(=O)C(F)(F)F [1-98] | 4 (90%-100% of herbicidal efficacy or phytotoxicity) | 4 (90%-100% of herbicidal efficacy or phytotoxicity) | 4 (90%-100% of herbicidal efficacy or phytotoxicity) | 10 | 4 (90%-100% of herbicidal efficacy or phytotoxicity) | 1 (1%-39% of herbicidal efficacy or phytotoxicity) | 4 (90%-100% of herbicidal efficacy or phytotoxicity) | 4 (90%-100% of herbicidal efficacy or phytotoxicity) |  |  |  |  |  | 
7 | CCCCOC(=O)N(c1ccccc1CN1CC(CC)(CC)OC1=O)S(=O)(=O)C(F)(F)F [1-99] | 4 (90%-100% of herbicidal efficacy or phytotoxicity) | 4 (90%-100% of herbicidal efficacy or phytotoxicity) | 4 (90%-100% of herbicidal efficacy or phytotoxicity) | 10 | 4 (90%-100% of herbicidal efficacy or phytotoxicity) | 1 (1%-39% of herbicidal efficacy or phytotoxicity) | 4 (90%-100% of herbicidal efficacy or phytotoxicity) | 4 (90%-100% of herbicidal efficacy or phytotoxicity) |  |  |  |  |  | 
8 | CCC1(CC)CN(Cc2ccccc2N(C(=O)OCC(C)(C)C)S(=O)(=O)C(F)(F)F)C(=O)O1 [1-100] | 4 (90%-100% of herbicidal efficacy or phytotoxicity) | 4 (90%-100% of herbicidal efficacy or phytotoxicity) | 4 (90%-100% of herbicidal efficacy or phytotoxicity) | 10 | 4 (90%-100% of herbicidal efficacy or phytotoxicity) | 1 (1%-39% of herbicidal efficacy or phytotoxicity) | 4 (90%-100% of herbicidal efficacy or phytotoxicity) | 4 (90%-100% of herbicidal efficacy or phytotoxicity) |  |  |  |  |  | 
9 | CCCCC1(C)CN(Cc2ccccc2N(C(=O)OCC)S(=O)(=O)C(F)(F)F)C(=O)O1 (stereo not drawn) [1-129] |  |  |  | 10 |  |  | 4 (90%-100% of herbicidal efficacy or phytotoxicity) |  | 4 (90%-100% of herbicidal efficacy or phytotoxicity) | 4 (90%-100% of herbicidal efficacy or phytotoxicity) | 3 (70%-89% of herbicidal efficacy or phytotoxicity) | 3 (70%-89% of herbicidal efficacy or phytotoxicity) | 1 (1%-39% of herbicidal efficacy or phytotoxicity) | 2 (40%-69% of herbicidal efficacy or phytotoxicity)
10 | CCCC1(CC)CN(Cc2ccccc2NS(=O)(=O)C(F)(F)F)C(=O)O1 (stereo not drawn) [1-130] | 4 (90%-100% of herbicidal efficacy or phytotoxicity) | 4 (90%-100% of herbicidal efficacy or phytotoxicity) | 4 (90%-100% of herbicidal efficacy or phytotoxicity) | 10 | 4 (90%-100% of herbicidal efficacy or phytotoxicity) | 1 (1%-39% of herbicidal efficacy or phytotoxicity) | 4 (90%-100% of herbicidal efficacy or phytotoxicity) | 4 (90%-100% of herbicidal efficacy or phytotoxicity) |  |  |  |  |  | 
11 | CCC1(C(C)C)CN(Cc2ccccc2NS(=O)(=O)C(F)(F)F)C(=O)O1 (stereo not drawn) [1-131] | 4 (90%-100% of herbicidal efficacy or phytotoxicity) | 4 (90%-100% of herbicidal efficacy or phytotoxicity) | 4 (90%-100% of herbicidal efficacy or phytotoxicity) | 10 | 4 (90%-100% of herbicidal efficacy or phytotoxicity) | 2 (40%-69% of herbicidal efficacy or phytotoxicity) | 4 (90%-100% of herbicidal efficacy or phytotoxicity) | 4 (90%-100% of herbicidal efficacy or phytotoxicity) |  |  |  |  |  | 
12 | CCCC1(CC)CN(Cc2ccccc2N(C(=O)OCC(C)C)S(=O)(=O)C(F)(F)F)C(=O)O1 (stereo not drawn) [1-132] | 4 (90%-100% of herbicidal efficacy or phytotoxicity) | 4 (90%-100% of herbicidal efficacy or phytotoxicity) | 4 (90%-100% of herbicidal efficacy or phytotoxicity) | 10 | 4 (90%-100% of herbicidal efficacy or phytotoxicity) | 1 (1%-39% of herbicidal efficacy or phytotoxicity) | 4 (90%-100% of herbicidal efficacy or phytotoxicity) | 4 (90%-100% of herbicidal efficacy or phytotoxicity) |  |  |  |  |  | 

From patent US20080274892A1, “Novel Haloalkylsulfonanilide Derivative, Herbicide, and Method of Use Thereof” (priority 2005, published 2008)
